Experimental data from patent publication US11000033B2, “Ketone or oxime compound, and herbicide” (NISSAN CHEMICAL CORPORATION, priority 2014, dated 2021).

Columns and labels:
Type in all cases: in vivo
[1] = tested on: beet; assay: Test Example 4: effect on crop by soil treatment (symbol f); conditions: application herbicide amount 320 g/ha
Method in brief: (§1)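 Grown at 25° C. to 30° C. in a greenhouse, the crops came from seed sown spot-wise in sterilized diluvial soil under roughly 1.5 cm of covering soil.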

[2] = tested on: rapeseed; assay: Test Example 4: effect on crop by soil treatment (symbol g); conditions: application herbicide amount 320 g/ha
Method in brief: as §1

[3] = tested on: Galium spurium; assay: Test Example 5: herbicidal effect by foliage application, plastic box (symbol Q); conditions: 320 g/ha, 3 weeks after application
Method in brief: (§2)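 After sowing into sterilized diluvial soil and growing two weeks under glass at 25° C. to 30° C., seedlings receive a uniform foliar spray of diluted emulsion. Damage is judged visually three weeks on.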

[4] = tested on: Apera spica-venti; assay: Test Example 4: herbicidal effect by soil treatment (symbol L); conditions: application herbicide amount 320 g/ha
Method in brief: (§3)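 Seeds were sown in sterilized diluvial soil, covered with about 1.5 cm of soil, and the soil surface was sprayed with a water-diluted emulsion of the compound at a predetermined rate. Plants grew in a greenhouse at 25° C. to 30° C.; effects were scored visually 3 weeks after application.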

[5] = tested on: wheat; assay: Test Example 4: effect on crop by soil treatment (symbol e); conditions: application herbicide amount 320 g/ha
Method in brief: as §1

[6] = tested on: Veronica persica; assay: Test Example 5: herbicidal effect by foliage application, plastic box (symbol R); conditions: 320 g/ha, 3 weeks after application
Method in brief: as §2

[7] = tested on: Setaria viridis; assay: Test Example 5: herbicidal effect by foliage application, plastic box (symbol G); conditions: 320 g/ha, 3 weeks after application
Method in brief: as §2

[8] = tested on: Galium spurium; assay: Test Example 4: herbicidal effect by soil treatment (symbol Q); conditions: application herbicide amount 320 g/ha
Method in brief: as §3

[9] = tested on: soybean; assay: Test Example 5: effect on crop by foliage application, plastic box (symbol d); conditions: 320 g/ha, 3 weeks after application
Method in brief: (§4)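 A greenhouse held between 25° C. and 30° C. was used to grow plants sown spot-wise, beneath ~1.5 cm of soil, in boxes of sterilized diluvial soil.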

[10] = tested on: Avena fatua; assay: Test Example 4: herbicidal effect by soil treatment (symbol I); conditions: application herbicide amount 320 g/ha
Method in brief: as §3

[11] = tested on: Avena fatua; assay: Test Example 5: herbicidal effect by foliage application, plastic box (symbol I); conditions: 320 g/ha, 3 weeks after application
Method in brief: as §2

[12] = tested on: Echinochloa crus-galli var. crus-galli; assay: Test Example 4: herbicidal effect by soil treatment (symbol H); conditions: application herbicide amount 320 g/ha
Method in brief: as §3

[13] = tested on: Amaranthus retroflexus; assay: Test Example 4: herbicidal effect by soil treatment (symbol N); conditions: application herbicide amount 320 g/ha
Method in brief: as §3

[14] = tested on: Chenopodium album; assay: Test Example 5: herbicidal effect by foliage application, plastic box (symbol O); conditions: 320 g/ha, 3 weeks after application
Method in brief: as §2

[15] = tested on: Apera spica-venti; assay: Test Example 5: herbicidal effect by foliage application, plastic box (symbol L); conditions: 320 g/ha, 3 weeks after application
Method in brief: as §2

[16] = tested on: Scirpus juncoides; assay: Test Example 1: herbicidal activity, application before weed generation in submerged conditions (symbol B); conditions: application herbicide amount 320 g/ha
Method in brief: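 0–5 visual score, 3 wk post-application. Submerged pots, alluvial soil, water 4 cm; seeds sown mixed, rice at 2.5 leaves transplanted. Emulsion diluted to predetermined dose, applied to water surface at sowing. 25–30 °C greenhouse.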

[17] = tested on: Scirpus juncoides; assay: Test Example 2: herbicidal activity, application during weed generation in submerged conditions (symbol B); conditions: Table 23; application herbicide amount 320 g/ha; grade 0-5 by criteria of Test Example 1
Method in brief: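 Each pot contained alluvial soil under 4 cm of water with seeds of all three weeds sown together. Following growth at 25° C. to 30° C. to the one- to two-leaf stage, the floodwater received diluted emulsion at a predetermined amount; visual assessment followed at 3 weeks.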

[18] = tested on: beet; assay: Test Example 5: effect on crop by foliage application, plastic box (symbol f); conditions: 320 g/ha, 3 weeks after application
Method in brief: as §4

SMILES	f: beet, effect on crop grade [1]	g: rapeseed, effect on crop grade [2]	Q: Galium spurium, herbicidal effect (criteria of Test Example 1) [3]	L: Apera spica-venti, herbicidal effect grade [4]	e: wheat, effect on crop grade [5]	R: Veronica persica, herbicidal effect (criteria of Test Example 1) [6]	G: Setaria viridis, herbicidal effect (criteria of Test Example 1) [7]	Q: Galium spurium, herbicidal effect grade [8]	d: soybean, effect on crop (criteria of Test Example 1) [9]	I: Avena fatua, herbicidal effect grade [10]	I: Avena fatua, herbicidal effect (criteria of Test Example 1) [11]	H: Echinochloa crus-galli var. crus-galli, herbicidal effect grade [12]	N: Amaranthus retroflexus, herbicidal effect grade [13]	O: Chenopodium album, herbicidal effect (criteria of Test Example 1) [14]	L: Apera spica-venti, herbicidal effect (criteria of Test Example 1) [15]	Herbicidal effect grade, B: Scirpus juncoides [16]	Herbicidal effect grade, B: Scirpus juncoides [17]	f: beet, effect on crop (criteria of Test Example 1) [18]
CON=C(C)CC1CC(O)=C(c2c(C)cc(-n3cccn3)cc2C)C1=O (stereo not drawn) [6-073]	0 (Herbicidal ratio of 5% or lower (almost no effect))	3 (Herbicidal ratio of 40% or higher and lower than 70%)	3 (Herbicidal ratio of 40% or higher and lower than 70%)	0 (Herbicidal ratio of 5% or lower (almost no effect))	2 (Herbicidal ratio of 20% or higher and lower than 40%)	3 (Herbicidal ratio of 40% or higher and lower than 70%)	5 (Herbicidal ratio of 90% or more (almost completely withered))	0 (Herbicidal ratio of 5% or lower (almost no effect))	0 (Herbicidal ratio of 5% or lower (almost no effect))	3 (Herbicidal ratio of 40% or higher and lower than 70%)	5 (Herbicidal ratio of 90% or more (almost completely withered))	5 (Herbicidal ratio of 90% or more (almost completely withered))	0 (Herbicidal ratio of 5% or lower (almost no effect))	3 (Herbicidal ratio of 40% or higher and lower than 70%)	3 (Herbicidal ratio of 40% or higher and lower than 70%)	1 (Herbicidal ratio of 5% or higher and lower than 20%)	2 (Herbicidal ratio of 20% or higher and lower than 40%)	0 (Herbicidal ratio of 5% or lower (almost no effect))
CON=C(C)CC1CC(O)=C(c2c(C)cc(-n3cncn3)cc2C)C1=O (stereo not drawn) [6-074]	0 (Herbicidal ratio of 5% or lower (almost no effect))	0 (Herbicidal ratio of 5% or lower (almost no effect))	0 (Herbicidal ratio of 5% or lower (almost no effect))	0 (Herbicidal ratio of 5% or lower (almost no effect))	0 (Herbicidal ratio of 5% or lower (almost no effect))	0 (Herbicidal ratio of 5% or lower (almost no effect))	4 (Herbicidal ratio of 70% or higher and lower than 90%)	0 (Herbicidal ratio of 5% or lower (almost no effect))	0 (Herbicidal ratio of 5% or lower (almost no effect))	0 (Herbicidal ratio of 5% or lower (almost no effect))	1 (Herbicidal ratio of 5% or higher and lower than 20%)	0 (Herbicidal ratio of 5% or lower (almost no effect))	0 (Herbicidal ratio of 5% or lower (almost no effect))	0 (Herbicidal ratio of 5% or lower (almost no effect))	0 (Herbicidal ratio of 5% or lower (almost no effect))	0 (Herbicidal ratio of 5% or lower (almost no effect))	0 (Herbicidal ratio of 5% or lower (almost no effect))	0 (Herbicidal ratio of 5% or lower (almost no effect))
CON=C(C)CC1CC(O)=C(c2c(C)cc(C)cc2SC)C1=O (stereo not drawn) [6-075]	0 (Herbicidal ratio of 5% or lower (almost no effect))	0 (Herbicidal ratio of 5% or lower (almost no effect))	0 (Herbicidal ratio of 5% or lower (almost no effect))	3 (Herbicidal ratio of 40% or higher and lower than 70%)	0 (Herbicidal ratio of 5% or lower (almost no effect))	0 (Herbicidal ratio of 5% or lower (almost no effect))	0 (Herbicidal ratio of 5% or lower (almost no effect))	0 (Herbicidal ratio of 5% or lower (almost no effect))	0 (Herbicidal ratio of 5% or lower (almost no effect))	0 (Herbicidal ratio of 5% or lower (almost no effect))	5 (Herbicidal ratio of 90% or more (almost completely withered))	0 (Herbicidal ratio of 5% or lower (almost no effect))	0 (Herbicidal ratio of 5% or lower (almost no effect))	0 (Herbicidal ratio of 5% or lower (almost no effect))	5 (Herbicidal ratio of 90% or more (almost completely withered))	1 (Herbicidal ratio of 5% or higher and lower than 20%)	0 (Herbicidal ratio of 5% or lower (almost no effect))	0 (Herbicidal ratio of 5% or lower (almost no effect))
CON=C(C)CC1CC(O)=C(c2c(C)cc(Br)cc2OC)C1=O (stereo not drawn) [6-076, 2-(4-bromo-2-methoxy-6-methylphenyl)-3-hydroxy-5-{2-(methoxyimino)propyl}cyclopent-2-enone]	0 (Herbicidal ratio of 5% or lower (almost no effect))	2 (Herbicidal ratio of 20% or higher and lower than 40%)	3 (Herbicidal ratio of 40% or higher and lower than 70%)	5 (Herbicidal ratio of 90% or more (almost completely withered))	0 (Herbicidal ratio of 5% or lower (almost no effect))	2 (Herbicidal ratio of 20% or higher and lower than 40%)	5 (Herbicidal ratio of 90% or more (almost completely withered))	0 (Herbicidal ratio of 5% or lower (almost no effect))	1 (Herbicidal ratio of 5% or higher and lower than 20%)	3 (Herbicidal ratio of 40% or higher and lower than 70%)	5 (Herbicidal ratio of 90% or more (almost completely withered))	5 (Herbicidal ratio of 90% or more (almost completely withered))	1 (Herbicidal ratio of 5% or higher and lower than 20%)	2 (Herbicidal ratio of 20% or higher and lower than 40%)	5 (Herbicidal ratio of 90% or more (almost completely withered))	3 (Herbicidal ratio of 40% or higher and lower than 70%)	1 (Herbicidal ratio of 5% or higher and lower than 20%)	0 (Herbicidal ratio of 5% or lower (almost no effect))
